Data published in PubChem BioAssay AID252 (DTP/NCI, 2004).
Inconclusive results and toxic doses are left out.

Test system: BDF1 mice, intracerebral L1210 leukemia, survival T/C
Assay: NCI In Vivo Anticancer Drug Screen. Data for tumor model L1210 Leukemia (intracerebral) in B6D2F1 (BDF1) mice
Conditions: higher = longer survival
Summary of the method: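 Transplantable tumour-bearing mice, compound-treated vs vehicle controls; read-out survival, reported as T/C ratio.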

CCn1cnc2c(SC3CCCC3)ncnc21
T/C (endpoint: mean survival time, dose: 30.0 mg/kg/injection, schedule: Q01DX015 (ip), vehicle: carboxymethylcellulose (CMC)): 118 % of control | T/C (endpoint: mean survival time, dose: 62.0 mg/kg/injection, schedule: Q01DX015 (ip), vehicle: carboxymethylcellulose (CMC)): 124 % of control | T/C (endpoint: mean survival time, dose: 62.0 mg/kg/injection, schedule: Q01DX Z (ip), vehicle: carboxymethylcellulose (CMC)): 118 % of control | T/C (endpoint: mean survival time, dose: 125.0 mg/kg/injection, schedule: Q01DX001 (ip), vehicle: carboxymethylcellulose (CMC)): 106 % of control | T/C (endpoint: mean survival time, dose: 125.0 mg/kg/injection, schedule: Q01DX015 (ip), vehicle: carboxymethylcellulose (CMC)): 123 % of control | T/C (endpoint: mean survival time, dose: 200.0 mg/kg/injection, schedule: Q01DX009 (ip), vehicle: carboxymethylcellulose (CMC)): 103 % of control | T/C (endpoint: mean survival time, dose: 250.0 mg/kg/injection, schedule: Q01DX001 (ip), vehicle: carboxymethylcellulose (CMC)): 112 % of control | T/C (endpoint: mean survival time, dose: 250.0 mg/kg/injection, schedule: Q01DX Z (ip), vehicle: carboxymethylcellulose (CMC)): 164 % of control | T/C (endpoint: mean survival time, dose: 375.0 mg/kg/injection, schedule: Q01DX015 (ip), vehicle: carboxymethylcellulose (CMC)): 169 % of control | T/C (endpoint: mean survival time, dose: 400.0 mg/kg/injection, schedule: Q01DX009 (ip), vehicle: carboxymethylcellulose (CMC)): 200 % of control | T/C (endpoint: mean survival time, dose: 500.0 mg/kg/injection, schedule: Q01DX001 (ip), vehicle: carboxymethylcellulose (CMC)): 108 % of control | T/C (endpoint: mean survival time, dose: 500.0 mg/kg/injection, schedule: Q01DX Z (ip), vehicle: carboxymethylcellulose (CMC)): 98 % of control | T/C (endpoint: mean survival time, dose: 1000.0 mg/kg/injection, schedule: Q01DX001 (ip), vehicle: carboxymethylcellulose (CMC)): 120 % of control

O=NN(CCF)C(=O)NC1CC2CCC1C2 (stereo not drawn)
T/C (endpoint: mean survival time, dose: 5.7 mg/kg/injection, schedule: Q01DX001 (ip), vehicle: other): 106 % of control | T/C (endpoint: mean survival time, dose: 11.5 mg/kg/injection, schedule: Q01DX001 (ip), vehicle: other): 115 % of control | T/C (endpoint: mean survival time, dose: 16.5 mg/kg/injection, schedule: Q01DX001 (ip), vehicle: other): 162 % of control | T/C (endpoint: mean survival time, dose: 23.0 mg/kg/injection, schedule: Q01DX001 (ip), vehicle: other): 161 % of control | T/C (endpoint: mean survival time, dose: 25.0 mg/kg/injection, schedule: Q01DX001 (ip), vehicle: other): 252 % of control | T/C (endpoint: mean survival time, dose: 37.0 mg/kg/injection, schedule: Q01DX001 (ip), vehicle: other): 274 % of control | T/C (endpoint: mean survival time, dose: 37.5 mg/kg/injection, schedule: Q01DX001 (ip), vehicle: other): 321 % of control | T/C (endpoint: mean survival time, dose: 46.0 mg/kg/injection, schedule: Q01DX001 (ip), vehicle: other): 309 % of control | T/C (endpoint: mean survival time, dose: 70.0 mg/kg/injection, schedule: Q01DX001 (ip), vehicle: other): 312 % of control | T/C (endpoint: mean survival time, dose: 126.0 mg/kg/injection, schedule: Q01DX001 (ip), vehicle: other): 312 % of control

CCCCCCCCCCCCCCCC(=O)Nc1ccn(C2OC(CO)C(O)C2O)c(=O)n1 (stereo not drawn)
T/C (endpoint: median survival time, dose: 12.5 mg/kg/injection, schedule: Q01DX009 (ip), vehicle: distilled water + Tween-80 + alcohol): 214 % of control | T/C (endpoint: median survival time, dose: 25.0 mg/kg/injection, schedule: Q01DX009 (ip), vehicle: distilled water + Tween-80 + alcohol): 269 % of control

O=c1n(CC2CO2)c(=O)n(CC2CO2)c(=O)n1CC1CO1 (stereo not drawn)
T/C (endpoint: median survival time, dose: 40.0 mg/kg/injection, schedule: Q01DX009 (ip), vehicle: saline): 151 % of control | T/C (endpoint: median survival time, dose: 70.0 mg/kg/injection, schedule: Q01DX009 (ip), vehicle: saline): 121 % of control | T/C (endpoint: median survival time, dose: 80.0 mg/kg/injection, schedule: Q01DX009 (ip), vehicle: saline): 121 % of control | T/C (endpoint: median survival time, dose: 90.0 mg/kg/injection, schedule: Q01DX009 (ip), vehicle: saline): 122 % of control

Nc1ncnc2c1ccn2C1OC(CO)C(O)C1O (stereo not drawn)
T/C (endpoint: mean survival time, dose: 1.2 mg/kg/injection, schedule: Q01DX001 (ip), vehicle: carboxymethylcellulose (CMC)): 96 % of control | T/C (endpoint: mean survival time, dose: 1.9 mg/kg/injection, schedule: Q01DX001 (ip), vehicle: carboxymethylcellulose (CMC)): 97 % of control | T/C (endpoint: mean survival time, dose: 2.9 mg/kg/injection, schedule: Q01DX001 (ip), vehicle: carboxymethylcellulose (CMC)): 100 % of control

O=NN(CCCl)C(=O)N[C@@H]1CCCC[C@H]1O
T/C (endpoint: mean survival time, dose: 12.0 mg/kg/injection, schedule: Q01DX001 (ip), vehicle: saline with Tween-80): 350 % of control | T/C (endpoint: mean survival time, dose: 18.0 mg/kg/injection, schedule: Q01DX001 (ip), vehicle: saline with Tween-80): 463 % of control | T/C (endpoint: mean survival time, dose: 26.0 mg/kg/injection, schedule: Q01DX001 (ip), vehicle: saline with Tween-80): 175 % of control

O=c1[nH]cc(N(CCCl)CCCl)c(=O)[nH]1
T/C (endpoint: mean survival time, dose: 0.75 mg/kg/injection, schedule: Q01DX015 (ip), vehicle: carboxymethylcellulose (CMC)): 114 % of control | T/C (endpoint: mean survival time, dose: 1.1 mg/kg/injection, schedule: Q01DX015 (ip), vehicle: carboxymethylcellulose (CMC)): 123 % of control | T/C (endpoint: mean survival time, dose: 1.5 mg/kg/injection, schedule: Q01DX001 (ip), vehicle: carboxymethylcellulose (CMC)): 106 % of control | T/C (endpoint: mean survival time, dose: 2.4 mg/kg/injection, schedule: Q01DX001 (ip), vehicle: carboxymethylcellulose (CMC)): 111 % of control | T/C (endpoint: mean survival time, dose: 3.6 mg/kg/injection, schedule: Q01DX001 (ip), vehicle: carboxymethylcellulose (CMC)): 102 % of control

CCOCCN1CCN(CCCN2c3ccccc3Sc3ccc(C(F)(F)F)cc32)CC1
T/C (endpoint: mean survival time, dose: 0.78 mg/kg/injection, schedule: Q01DX009 (ip), vehicle: water): 106 % of control | T/C (endpoint: mean survival time, dose: 1.56 mg/kg/injection, schedule: Q01DX009 (ip), vehicle: water): 103 % of control | T/C (endpoint: mean survival time, dose: 25.0 mg/kg/injection, schedule: Q04DX003 (ip), vehicle: water): 106 % of control
